Literature values in US8329231B2, “Method of preventing photo-aging with ashwagandha and Indian gooseberry” (Nutragenesis, LLC, priority 2008, dated 2012).

Settings: values from the literature

O=C1O[C@H]([C@@H](O)CO)C(O)=C1O [Vitamin C]
HORAC (published, literature): 0 units
